Source: paper PMC6017090, “Design, Synthesis and Biological Evaluation of Novel N-Pyridyl-Hydrazone Derivatives as Potential Monoamine Oxidase (MAO) Inhibitors” (Molecules : A Journal of Synthetic Chemistry and Natural …, 2018)

Tests used:
MAO-A enzyme = target: T1, MAO-A enzyme (Homo sapiens, UniProt P21397); experiment: MAO activity assay (fluorometric, kynuramine substrate), MAO-A; assay type: biochemical
T1 construct: purchased Sigma-Aldrich
T1 sequence (P21397 1-527): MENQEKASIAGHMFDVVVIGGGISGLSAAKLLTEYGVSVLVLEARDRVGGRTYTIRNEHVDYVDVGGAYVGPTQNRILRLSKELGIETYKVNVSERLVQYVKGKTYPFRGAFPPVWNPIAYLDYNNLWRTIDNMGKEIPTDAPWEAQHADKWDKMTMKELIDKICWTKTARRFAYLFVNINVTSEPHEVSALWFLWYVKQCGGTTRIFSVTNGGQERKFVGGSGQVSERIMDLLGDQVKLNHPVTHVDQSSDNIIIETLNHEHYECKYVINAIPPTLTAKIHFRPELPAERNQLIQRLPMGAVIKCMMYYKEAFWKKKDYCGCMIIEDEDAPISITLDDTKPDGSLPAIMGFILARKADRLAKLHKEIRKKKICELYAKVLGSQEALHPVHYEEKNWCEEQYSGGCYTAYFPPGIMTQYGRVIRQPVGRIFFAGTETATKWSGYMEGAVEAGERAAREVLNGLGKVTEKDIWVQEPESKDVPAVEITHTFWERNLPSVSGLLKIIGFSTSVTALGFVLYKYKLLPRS
Procedure: The enzyme activity assay was performed in accordance with the procedure reported by Matsumoto et al. with slight modifications. All materials used in the enzymatic assays were purchased from Sigma-Aldrich Chemicals. All pipetting protocols in the assay were performed by the Biotek Precision robotic system (BioTek Instruments, Inc., Winooski, VT, USA). To prevent the effect of light MAO enzymes, the assay was performed in 96-well black plates. […] The enzyme stock solutions were further diluted with an assay buffer to obtain final concentrations of 0.006 mg/mL MAO-A and 0.015 mg/mL MAO-B. Kynuramine was dissolved in sterilized distilled water to obtain a 25 mM stock solution and then diluted with the assay buffer to obtain final concentrations of 40 μM for the MAO-A enzyme and 20 μM for the MAO-B enzyme. […] The addition of the diluted compounds was followed by the addition of either the MAO-A or MAO-B enzymes (50 μL/well). […] Fluorescence was read from top by using BioTek-Synergy H1 multimode microplate reader at the excitation/emission wavelengths of 310 and 380 nm.
(§1) The IC50 values (Table 2) were calculated from the plots of enzyme activity against concentrations, and the regression analyses were computed in GraphPad Prism Version 6 (GraphPad Software, Inc., La Jolla, CA, USA).

human recombinant MAO-B = target: T2, human recombinant MAO-B (Homo sapiens, UniProt P27338); experiment: MAO activity assay (fluorometric, kynuramine substrate), MAO-B; assay type: biochemical; details: 10^−3 M; ± S.D.
T2 construct: purchased Sigma-Aldrich
T2 sequence (P27338 1-520): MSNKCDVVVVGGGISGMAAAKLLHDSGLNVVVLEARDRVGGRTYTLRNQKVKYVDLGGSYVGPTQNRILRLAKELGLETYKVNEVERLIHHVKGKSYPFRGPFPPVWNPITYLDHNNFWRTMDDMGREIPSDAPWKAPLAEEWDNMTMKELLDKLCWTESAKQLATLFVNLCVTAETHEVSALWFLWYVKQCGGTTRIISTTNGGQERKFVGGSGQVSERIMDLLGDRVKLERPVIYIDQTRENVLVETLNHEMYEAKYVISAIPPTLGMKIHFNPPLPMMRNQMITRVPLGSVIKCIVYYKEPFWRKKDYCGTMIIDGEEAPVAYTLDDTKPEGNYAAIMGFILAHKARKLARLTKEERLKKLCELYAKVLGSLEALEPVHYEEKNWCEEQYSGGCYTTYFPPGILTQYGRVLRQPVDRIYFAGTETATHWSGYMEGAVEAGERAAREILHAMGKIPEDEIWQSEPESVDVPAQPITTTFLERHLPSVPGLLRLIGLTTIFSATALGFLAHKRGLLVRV
Procedure: The enzyme activity assay was performed in accordance with the procedure reported by Matsumoto et al. with slight modifications. All materials used in the enzymatic assays were purchased from Sigma-Aldrich Chemicals. All pipetting protocols in the assay were performed by the Biotek Precision robotic system (BioTek Instruments, Inc., Winooski, VT, USA). To prevent the effect of light MAO enzymes, the assay was performed in 96-well black plates. Phosphate buffer (0.1 M, pH = 7.4) was used for the preparation of 5 mg/mL stock solutions of the human recombinant MAO-A and MAO-B enzymes. The enzyme stock solutions were further diluted with an assay buffer to obtain final concentrations of 0.006 mg/mL MAO-A and 0.015 mg/mL MAO-B. Kynuramine was dissolved in sterilized distilled water to obtain a 25 mM stock solution and then diluted with the assay buffer to obtain final concentrations of 40 μM for the MAO-A enzyme and 20 μM for the MAO-B enzyme. […] The addition of the diluted compounds was followed by the addition of either the MAO-A or MAO-B enzymes (50 μL/well). […] Fluorescence was read from top by using BioTek-Synergy H1 multimode microplate reader at the excitation/emission wavelengths of 310 and 380 nm.
as §1

[1] = tested on: NIH/3T3 mouse embryonic fibroblast cells
Procedure: The MTT assay was performed as previously described [21, 22, 23, 24, 25, 26].

IC50 (MAO-A enzyme): 9.52 µM | MAO-A Inhibition % (MAO-A enzyme; 10^−3 M, ± S.D.): 72.07 ± 1.56% | MAO-A Inhibition % (MAO-A enzyme; 10^−4 M, ± S.D.): 56.90 ± 1.50% | MAO-A Inhibition % (MAO-A enzyme; 10^−5 M): 42.13 ± 1.22% | MAO-A Inhibition % (MAO-A enzyme; 10^−6 M): 35.11 ± 1.18% | MAO-A Inhibition % (MAO-A enzyme; 10^−7 M): 24.96 ± 0.83% | MAO-A Inhibition % (MAO-A enzyme; 10^−8 M): 18.02 ± 0.77% | MAO-A Inhibition % (MAO-A enzyme; 10^−9 M): 10.40 ± 0.29% | MAO-B Inhibition % (human recombinant MAO-B): 42.00 ± 1.21% | IC50 [1]: > 1000 µM
Structure (SMILES): CCOc1ccc([N+](=O)[O-])c(NN=Cc2ccccn2)n1 [Compound 2n, 6-Ethoxy-3-nitro-2[(2-(pyridine-2-yl)methylene)hydrazinyl]pyridine]
